Experimental data taken from article PMC11042424, “Development of a First-in-Class RIPK1 Degrader to Enhance Antitumor Immunity” (Research Square, 2024).

Assays:
B16F10 tumors = assay: B16F10 syngeneic tumor model with anti-PD1; type: in vivo; conditions: B16F10 tumors; 20 mg/kg i.p. daily plus anti-PD1 100 μg i.p. every three days
Procedure: Figure 4 LD4172 synergizes with Anti-PD1 to inhibit tumor growth. A, Plasma concentrations of LD4172 in C57BL/6J mice administered 1 mg/kg intravenously (i.v.) or 10 mg/kg intraperitoneally (i.p.) (n=4). B, Representative immunoblots of RIPK1 in different tissues of C57BL/6J mice treated with LD4172 (n=3–4). C, Densitometric analysis of RIPK1 protein levels in different tissues (n=3 or 4). D, Representative immunoblots of RIPK1 levels of B16F10 cells transduced with gRNA specific for RIPK1 or non-targetable control (sgNC). E, B16F10-RIPK1-KO tumors sensitized to anti-PD1 treatment: 3×10^5 B16F10 cells transduced with gRNA specific for RIPK1 or non-targetable control (sgNC) were inoculated into C57BL/6J mice. After seven days, mice with measurable tumors (~100 mm3) were randomly treated with or without anti-PD1 in vivo (100 μg per dose, i.p., every three days, n=8). F, Tumor growth curve of mice with B16F10 tumors treated with LD4172 and/or anti-PD1 (n=8). C57B6/J mice were subcutaneously inoculated with 3×10^5 B16F10 tumor cells. After seven days (tumor size ~ 100 mm3), mice were treated every three days with anti- PD1 (100 μg per dose, i.p.), daily with LD4172 (20 mg/kg, i.p.), a combination of LD4172 and anti-PD1 (same dose as their individual doses), or their corresponding vehicle control. G, Kaplan-Meier survival curve for all experimental groups. H, Final tumor weight (g) from F after 22d of treatment (n=8). I, Representative images of B16F10 tumors collected at the end of treatment. J, Mouse body weight (n=8). K, Tumor growth curve of mice with B16F10 tumors treated with T2I and/or anti-PD1 (n=8). The experimental conditions and treatment regimens were the same as F except using the RIPK1 kinase inhibitor T2I (20 mg/kg, i.p.) to replace LD4172. Representative data from at least three independent experiments are shown. Data are expressed as the mean ± SEM. * p<0.05; ** p<0.01; *** p<0.001, **** p<0.0001, respectively. ns, indicates no statistical significance.
To establish a syngeneic mouse model, 3× 10^5 B16F10 cells resuspended in PBS were mixed 1:1 by volume with Matrigel (354262, Corning) and subcutaneously injected into the right flank of seven-week-old wild-type female C57BL/6J mice on day 0. Treatments were started on day 7 when the tumor volume reached approximately 100 mm^3. Antibodies were administered in 100μL volumes and injected intraperitoneally every three days for the following: anti-PD1 (100 μg, BE0146, BioXcell) and anti-CD8 (500 μg, BE0004, BioXcell). The RIPK1 degrader LD4172 and RIPK1 kinase inhibitor T2I were delivered in 200 μL of vehicle solution (30% PEG400, 5% Tween-80, 5% DMSO) once daily (20 mg/kg, i.p. injection). […] Tumors were measured every three days beginning on day 7 after the challenge until death. […]

B16F10 cells = assay: TNFα-mediated apoptosis in B16F10 cells; type: cell-based, mouse; conditions: 1 μM, TNFα 100 ng/mL, 72 hours
Description: Figure 3 LD4172 sensitizes B16F10 cells to TNFα-mediated apoptosis. A, Representative flow cytometry dot plots of apoptosis. In all four plots, viable cells are seen in the left lower quadrant (FITC-/PI-), early apoptotic cells in the right lower quadrant (FITC+/PI-), and late apoptotic cells in the right upper quadrant (FITC+/PI+). B, Representative images of PI (red) and caspase 3/7 (Cas3/7+, green) staining of B16F10 cells. Cell death assessed by PI uptake using Cytation 5 imager. C, Western blots for the expression of cleaved caspase3, cleaved caspase7, and cleaved PARP in B16F10 cells. D, Quantification of extracellular ATP level. Western blots for the expression of HMGB1 and calreticulin in B16F10 cells. E, Immunofluorescence staining of HMGB1 in B16F10 cells. B16F10 cells were treated in the presence or absence of TNFα (100 ng/mL), Z-VAD-FMK (25 μM), LD4172 (1 μM), and/or T2I (1 μM) as indicated for 72 hours. Data are representative of three independent experiments. Error bars represent SD.
Apoptosis quantification was conducted utilizing a FITC-conjugated Annexin V/PI assay kit (556547, BD Biosciences) and analyzed through flow cytometry. Briefly, 2×10^5 of B16F10 cells were seeded onto six-well plates and treated as specified for 72 hours at 37°C. Treated and untreated cells were harvested, washed with PBS, and resuspended in 100 μl of binding buffer. […]

**Q.** What does the source list for `CCn1cc(-c2ccc3c(c2)CCN3C(=O)Cc2cccc(OC(F)(F)F)c2)c2c(N)ncnc21` [T2I, reference compound]?
**A.** tumor response in combination with anti-PD1 (B16F10 tumors): failed to sensitize B16F10 tumors to anti-PD1 treatment; cell death / apoptosis in combination with TNFα (B16F10 cells): did not trigger TNFα-mediated apoptosis
